This is an account of results in patent publication US6011041A, “Use of anhydrovinblastine” (priority 1996, dated 2000).

Counter-ions that a name gives are not always drawn.

The test system of data set [1] is Nb2-U17 lymphoma. As to the kind of experiment: Nb2-U17 lymphoma transplant efficacy in Nb rats (FIGS. 2-3). The data set is classed as in vivo, rat. Particulars: for time to regression of tumours to essential non-palpability: single i.p. subacutely toxic dose (AHVB 3.0, navelbine 2.0, vincristine 0.7 mg/kg); for recurrence of tumours after day 10 / time after which most of the lost animal weight was regained: single i.p. subacutely toxic dose, Nb2-U17 rats; for anti-tumour effect at 50% of maximum tolerated dose, relative potency: half subacutely toxic dose, single i.p. (AHVB 1.5, navelbine 1.0, vincristine 0.35 mg/kg). From the text: The U17 cell line was originally derived from a transplantable malignant lymphoma that arose spontaneously in male Noble rats (British Columbia Cancer Research center Joint Animal Breeding Facility with parents obtained from the National Institutes of Health, Bethesda, Md.). The cell line is prolactin dependent and can readily be cultured in vitro. U17 derived solid tumours are generated by subcutaneous injection (via the trocar method) of a small (2 mm^2) piece of tumour tissue obtained from male Noble rat. Tumour tissue used for the implants arose two weeks after injection of 5×10^6 U17 cells (from culture) subcutaneously in the nape of the neck. For assessing the anti-tumour activity of AHVB, tumour bearing animals (2-4 gm tumours) were given a single treatment of drug and tumour size was measured as a function of time following treatment. The anti-tumour activity was assessed at a series of different doses in order to determine the maximum therapeutic dose of AHVB. Comparative studies between vincristine, vinblastine and AHVB were performed.
Cultures of the non-metastatic, pre-T Nb2 lymphoma line originally developed at The University of British Columbia and designated Nb2-U17 (Anticancer Research 14:2485-2492, 1994), and are available from the British Columbia Cancer Research Center. Cells from exponentially growing Nb2-U17 suspension cultures were injected subcutaneously into methoxyflurane-anesthetized, mature male Nb rats (5 rats; 310-380 grams; 5×10^6 cells/rat in 1 ml of culture medium) at the nape of the neck using a 1.5" 20-gauge needle. At about 3 weeks, when the tumours reached a size of 4-7 cm (length+width), the animals were sacrificed and the tumours used for transplantation as described below.
A tumour from a rat was excised, minced and the tumour tissue was put into trocars (2", 13 gauge). The tissue samples were implanted subcutaneously in the nape of the neck of methoxyflurane-anesthetized male Nb rats (248-404 grams; 1 trocar per rat). This procedure was repeated 5 times to get a total of 60 tumour-bearing rats to be used for efficacy studies of the 3 drugs.
When the tumours were well established (1.5-2 weeks later), three separate groups of 20 rats, as closely matched as possible in terms of both tumour weight and rat weight, were selected for administration of the three test articles (i.e. one group for each test article).
Vincristine was administered to rats weighing 281-384 grams, bearing tumours weighing 6.3-16.3 grams. Navelbine was administered to rats weighing 274-389 grams bearing tumours weighing 9.1-23.3 grams. AHVB was administered to rats weighing 303-400 grams, bearing tumours weighing 7.9-25.9 grams. Tumour weights were estimated using the hemi-ellipsoid model (weight in grams=[…] in cm).
The oncolytic effects of each of the three drugs were assessed at a subacutely toxic dose, determined for each drug in preliminary studies using non-tumour-bearing, mature male Nb rats, i.e. 3.0, 2.0 and 0.7 mg/kg for […], navelbine and vincristine, respectively as illustrated in FIG. 2. In addition, each drug was assessed at 50% and 25% of its subacutely toxic dose. Five tumour-bearing rats were used to evaluate the effect at each dose level. The drugs were administered intraperitoneally as a single bolus in a volume of 0.19-0.31 ml, as indicated by the weight of the animals. To this end, drug preparations were diluted to appropriate concentrations using sparged saline adjusted with acetic acid to pH 4.2. For each drug, a group of 5 control rats received an intraperitoneal injection of the equivalent amount of saline (pH 4.2). The tumour-bearing rats were organized in the following groups:
Following administration of the test articles, the animals; weight and tumour size (using calipers) were determined daily until the tumour reached an estimated weight of 35 grams, or started to ulcerate, at which times the animals were sacrificed (by carbondioxide inhalation) and subjected to necropsy. […]

For data set [2] the following is noted: relative to other vinca alkaloids; cited from earlier work.
The conditions of data set [3]: cited from earlier work; for dose limiting toxicity: humans.
Data set [4] concerns SKOV3 cells. As to the kind of experiment: cytotoxicity on SKOV3 cells (FIG. 8). The data set is classed as cell-based. Particulars: Homo sapiens, SK-OV-3, 72 h; SKOV3, 3 day incubation.
Data set [5] can be described thus: weight loss / toxicity in BDF1 mice bearing P388 tumours (FIG. 4). Type of data set: in vivo. The protocol: Groups (five mice per group) of female BDFI mice (Charles Rivers, Canada) were injected (intraperitoneal) with 10^6 P388 cells (as described above). One day after tumor cell inoculation, the mice were given a bolus intravenous injection of indicated drug via the lateral tail vein. Control groups were injected with saline. Free drug samples were prepared on the day of injection such that the final concentrations were sufficient to deliver the indicated drug dose in a volume of 200 μl. All dilutions were made using 0.9% Sodium Chloride Injection USP. The mice were briefly (less than 30 sec.) restrained during intravenous injections. Dilation of the vein was achieved by holding the animals under a heat lamp for a period of between five and ten minutes. Following administration of the test articles, animals were weighed daily for fourteen days and monitored for signs of stress twice daily for the first 14 days (once daily on weekends) and once daily for the remainder of the study. Severely distressed animals were terminated by CO2 asphyxiation and the time of death was recorded to occur on the following day. Although complete dose titrations were completed for each drug, the data shown in FIG. 6 is that obtained after administration of the free drugs at their maximum tolerated dose. This was 3, 40 and 40 mg/kg for vincristine, navelbine and AHVB, respectively.
After treating mice (bearing the P388 tumor) with a single dose of the indicated drug, animals were examined twice daily for the first 14 days (once daily on weekends). Weight gain in the control is an indication of tumor progression.
The studies were conducted as described for FIG. 6. The maximum tolerated dose of AHVB (40 mg/kg) as specified in these studies reflects a very acute (within 1 hour) toxic reaction that limits further dose excalatin for i.v. administration of AHVB.

The test system of data set [6] is cells derived from human lung cancer. Particulars: cited from earlier work.

With `CC[C@]1(O)C[C@H]2CN(CCc3c([nH]c4ccccc34)[C@@](C(=O)OC)(c3cc4c(cc3OC)N(C=O)[C@H]3[C@@](O)(C(=O)OC)[C@H](OC(C)=O)[C@]5(CC)C=CCN6CC[C@]43[C@@H]65)C2)C1` [vincristine, Sulfate of 22-oxovincaleukoblastine], in data set [1], the “time to regression of tumours to essential non-palpability” value (from here on “time … to essential non-palpability”) is given as no more than 5 days, the “recurrence of tumours after day 10” value is “recurrence of tumours was not observed” and the “time after which most of the lost animal weight was regained” value (from here on “time after which most”) is listed as “about 17 days”. Besides, the “terminal elimination phase of plasma clearance” value in data set [2] is reported as “extended terminal elimination phase of plasma clearance”. Besides, in data set [3], the dose limiting toxicity result is “peripheral neuropathy (in the absence of hematological toxicity)”. Also, in data set [3] (i.v.), the “other adverse reactions reported” value was “abdominal cramps, ataxia, foot drop, weight loss, optic atrophy with blindness, transient cortical blindness, fever, cranial nerve manifestations, parehesia and numbness of the digits, polyuria, dysuria, oral ulceration, headache, vomiting, diarrhea, and intestinal necrosis and/or perforation”. The intrathecal administration outcome in data set [3] (intrathecal) is “uniformly fatal”. In addition, the “adverse reactions that can occur with single weekly doses” value in data set [3] (single weekly doses, i.v.) was “leukopenia, neuritic pain, constipation, and difficulty in walking”. Besides, in data set [3] (single weekly doses), the “most common adverse reaction” value was “hair loss” and the “most troublesome adverse reactions” value is given as “neuromuscular in origin”.
`CCC1=CC2CN(CCc3c([nH]c4ccccc34)C(C(=O)OC)(c3cc4c(cc3OC)N(C)C3C(O)(C(=O)OC)C(OC(C)=O)C5(CC)C=CCN6CCC43C65)C2)C1` (stereo not shown) [AHVB, 3',4'-anhydrovinblastine]: in data set [1], the “anti-tumour effect at 50% of maximum tolerated dose, relative potency” value was “less potent than vincristine”; the “time … to essential non-palpability” value is given as no more than 5 days; the “recurrence of tumours after day 10” value is listed as “occurred to about the same extent”; the “time after which most” value is “about 17 days”. Also, it took 4 µM to reach half-maximal inhibition in data set [4] (IC50). Besides, the “time of very acute toxic reaction that limits dose escalation” value in data set [5] (i.v., at maximum tolerated dose 40 mg/kg) is no more than 1 h. The “toxicity ranking (vinca alkaloid induced weight loss)” value in data set [5] (single i.v. injection at maximum tolerated dose, AHVB 40 mg/kg) is on record as “least toxic of the three drugs evaluated”.
On to `CCC1=C[C@@H]2CN(C1)Cc1c([nH]c3ccccc13)[C@@](C(=O)OC)(c1cc3c(cc1OC)N(C)[C@H]1[C@@](O)(C(=O)OC)[C@H](OC(C)=O)[C@]4(CC)C=CCN5CC[C@]31[C@@H]54)C2` [navelbine, 3',4'-didehydro-4'-deoxy-C'-norvincaleukoblastine-di-L-tartrate], for which the “activity against cells derived from human lung cancer” value in data set [6] was “active”. In data set [1], the “anti-tumour effect at 50% of maximum tolerated dose, relative potency” value is listed as “less potent than AHVB”; the “time … to essential non-palpability” value is reported as no more than 5 days; the “recurrence of tumours after day 10” value is “occurred to about the same extent”; the “time after which most” value is given as “about 17 days”. For the same compound, the “toxicity at maximum tolerated dose” value in data set [5] (i.v., compared with acute toxicity of AHVB) was “more prolonged toxicity”. Moreover, the dose limiting toxicity result in data set [3] was “hematological toxicities and not neurological side effects”. Also, the local side effects result in data set [3] (intravenous) is “phlebitia or extravasion injury as it is a moderate vasicant”. Also, the “incidence of constipation, vomiting, diarrhea, anorexia, and stomatitis” value in data set [3] (patients, relative to nausea) is listed as “slightly lesser fraction”. Moreover, the “incidence of mild to moderate nausea” value in data set [3] (patients) is recorded as “roughly one-third”. Further, the “incidence of mild to moderate peripheral neuropathy (paresthesia and hypesthesia)” value in data set [3] (single agent) is listed as 10 % of patients.
